US4052455A, “Styrylamidines” (Mead Johnson & Company, priority 1975, dated 1977)
Counter-ions that a name gives are not always drawn.

How the values were obtained:
[1] = tested on: phenylquinone writhing syndrome; experiment: Phenylquinone writhing test (analgesic activity); assay type: in vivo; settings: mice
Method: In this test, groups of 10-20 mice are injected subcutaneously or orally with different doses of the test compound. At predetermined time intervals, the mice receive 2.5 mg./kg. phenylquinone intraperitoneally. The total number of writhing episodes is counted for each mouse for 10 min. and the average percent decrease in writhing recorded for each dose.
The novel styrylsulfonylamidines of Formula V in addition to being useful as precursors to the styrylamidine products of Formula I have analgesic utility as measured in the foregoing phenylquinone writhing test. A preferred class of styrylsulfonylamidines of Formula V having particularly significant analgesic activity are those wherein R1 and R2 are each hydrogen, nitro or halogen and A is phenyl or lower alkyl of from 1 to 8 carbon atoms inclusive. Analgesic activity at the time interval indicated following administration of compounds representative of this class are given in Table I below.

platelet aggregation = experiment: Born/O'Brien nephelometric platelet aggregation test in platelet rich plasma (ADP or collagen induced); assay type: cell-based; settings: human or rabbit platelet rich plasma, 50% or more reduction, read-out: Concentration at which collagen or adenosine diphosphate induced platelet aggregation is reduced by 50% or more
Method: (§1) Measurement of the antithrombogenic activity of the compounds of Formula I is carried out by standard pharmacological tests essentially described by Born, Nature, 194, 927 (1962) and O'Brien, J. Clin. Path., 15, 446 (1962). This test comprises a nephelometric method is which the change in turbidity of a specimen of platelet rich plasma (human or rabbit) is measured on causation of platelet aggregation by addition of a thrombogenic inducing agent such as adenosine diphosphate or collagen. The compounds of the present invention are effective antithrombogenic agents according to this test at concentrations in the order of about 0.5 to 90 mcg./0.5 ml. platelet rich plasma. In the intact animal, the antithrombogenic effect is readily observed by applying the above test to blood samples withdrawn prior to and after administration of a compound of the present invention.

[2] = tested on: blood platelet aggregation; experiment: Oral administration to rabbits; inhibition of blood platelet aggregation induced by ADP or collagen in platelet rich plasma (Example 56); assay type: in vivo; settings: rabbit, oral single dose 25 mg./kg.; for % Inhibition of Blood Platelet Aggregation Induced by ADP: ADP 0.25-1.0 microgram; for % Inhibition of Blood Platelet Aggregation Induced by Collagen: lowest amount of collagen giving maximal aggregation
Method: as §1
The styrylamidine is orally administered to each rabbit in a group of 2-6 rabbits at a single dose of 25 mg./kg. body weight. A 8 ml. portion of blood is drawn just prior to dosing in order to obtain a control value and at various time periods thereafter. Platelet rich plasma is prepared from each blood sample by centrifugation at 200 times gravity for 10 min. at room temperature. Samples (0.5 ml.) of platelet rich plasma are tested for their ability to aggregate with either collagen or adenosine-5'-diphosphate added as specified in the modification of Born and O'Brien method which has been fully described hereinbefore. The results shown below indicate the inhibition of blood platelet aggregation induced by the lowest amount of collagen giving maximal aggregation or 0.25-1.0 microgram adenosine-5'-diphosphate for representative amidines.

mouse electroshock = experiment: Mouse electroshock test of Swinyard (anticonvulsant); assay type: in vivo; settings: oral
Source text: Aside from antithrombogenic and analgesic effects, compounds of Formula I wherein R1 and R2 substituents are halogen (particularly chlorine), R3 is hydrogen or methyl and A is selected from the group consisting of lower alkyl of from 1 to 8 carbon atoms inclusive or cycloalkyl of from 3 to 6 carbon atoms inclusive, are useful as anticonvulsant, hypotensive and antihypertensive agents. […] For example, N-(2,6-dichlorostyryl)acetamidine in the mouse electroshock test of E. A. Swinyard, J. Amer. Pharm.

blood pressure [3] = experiment: Blood pressure and heart rate in anesthetized normotensive dog; assay type: in vivo
Method: (§2) For instance, at 1.0 mg./kg. body weight, this compound provides a 33% reduction in blood pressure while at 10.0 mg./kg. body weight, a 64% reduction in blood pressure is obtained. In the same test procedure, the prior art cinnamylamidine, N-(4-chlorocinnamyl)acetamidine, provided a 12% increase in blood pressure with a 6% decrease in heart rate at a dose of 1.0 mg./kg. body weight. At a dose of 10.0 mg./kg. body weight, the prior art cinnamylamidine provides an increase of 26% in blood pressure.

blood pressure [4] = experiment: Blood pressure in spontaneous hypertensive rat; assay type: in vivo; settings: oral 5 to 50.0 mg./kg.
Method: as §2

urine output = experiment: Lipschitz diuretic test; assay type: in vivo; settings: oral; 12.5 mg./kg. body weight
Source text: N-(2,6-dichlorostyryl)acetamidine is orally effective as a diuretic agent according to the W. L. Lipschitz, et al., J. Pharmacol. Expt.

[5] = subcutaneous 6 mg./kg., time interval 30 min.

For `N=C(NS(=O)(=O)C=Cc1ccccc1)c1ccccc1` [N-(styrylsulfonyl)benzamidine, N-(STYRYLSULFONYL)BENZAMIDINE], the “Analgesic activity, Percent Inhibition” value ([1]; oral 100 mg./kg., time interval 60 min.) was 26% and the “Analgesic activity, Percent Inhibition” value [1, 5] was 36%.

In the case of `CC(=N)NS(=O)(=O)C=Cc1ccc(Cl)c(Cl)c1` [N-[(3,4-DICHLOROSTYRYL)SULFONYL]ACETAMIDINE], the “Analgesic activity, Percent Inhibition” value ([1]; oral 100 mg./kg., time interval 120 min.) is reported as 36% and the “Analgesic activity, Percent Inhibition” value [1, 5] is reported as 28%.

With `CC(=O)Nc1ccc(/C=C/NC(=N)c2ccccc2)cc1` [N-(4-ACETAMIDOSTYRYL)BENZAMIDINE HYDROCHLORIDE] the IC50 (platelet aggregation) was less than 30 µg/mL.

`CC(=N)N/C=C/c1ccc(Cl)c(Cl)c1` [N-(3,4-DICHLOROSTYRYL)ACETAMIDINE HYDROCHLORIDE] was tested, and the IC50 (platelet aggregation) was less than 30 µg/mL, the “% Inhibition of Blood Platelet Aggregation Induced by ADP” value (shortened to “% Inhibition … by ADP”) ([2]; 1 hr.) was 50% and the “% Inhibition … by ADP” value ([2]; 2 hrs.) was 52%. The “% Inhibition … by ADP” value ([2]; 4 hrs.) was 67%, the “% Inhibition … by ADP” value ([2]; 6 hrs.) was 55% and the “% Inhibition … by ADP” value ([2]; 24 hrs.) was 0%. The “% Inhibition of Blood Platelet Aggregation Induced by Collagen” value (“% Inhibition … by Collagen” below) ([2]; 1 hr.) was 67%, the “% Inhibition … by Collagen” value ([2]; 2 hrs.) was 50% and the “% Inhibition … by Collagen” value ([2]; 4 hrs.) was 85%. The “% Inhibition … by Collagen” value ([2]; 6 hrs.) was 55% and the “% Inhibition … by Collagen” value ([2]; 24 hrs.) was 0%.

`N=C(N/C=C/c1ccccc1)c1ccccc1` [N-styrylbenzamidine hydrochloride, N-STYRYLBENZAMIDINE HYDROCHLORIDE] showed an IC50 (platelet aggregation) of less than 30 µg/mL.

In the case of `CC(C)(C)C(=N)N/C=C/c1ccc(Cl)c(Cl)c1` [N-(3,4-DICHLOROSTYRYL)-2,2-DIMETHYLPROPIONAMIDINE], the “% Inhibition … by ADP” value ([2]; 1 hr.) is reported as 60%, the “% Inhibition … by ADP” value ([2]; 2 hrs.) is reported as 25% and the “% Inhibition … by ADP” value ([2]; 4 hrs.) is reported as 67%. The “% Inhibition … by ADP” value ([2]; 6 hrs.) was 87%, the “% Inhibition … by ADP” value ([2]; 24 hrs.) was 0% and the “% Inhibition … by Collagen” value ([2]; 1 hr.) was 78%. For the same compound, the “% Inhibition … by Collagen” value ([2]; 2 hrs.) was 80%, the “% Inhibition … by Collagen” value ([2]; 4 hrs.) was 95% and the “% Inhibition … by Collagen” value ([2]; 6 hrs.) was 95%. For the same compound, the “% Inhibition … by Collagen” value ([2]; 24 hrs.) was 0%.

`N=C(N/C=C/c1ccc(N)cc1)c1ccc(N)cc1` [4-AMINO-N-(4-AMINOSTYRYL)BENZAMIDINE TRIHYDROCHLORIDE] was tested, and the IC50 (platelet aggregation) was less than 30 µg/mL.

With `CC(=N)N/C=C/c1c(Cl)cccc1Cl` [N-(2,6-dichlorostyryl)acetamidine] the ED50 (mouse electroshock) was 44 mg/kg, the “Reduction in blood pressure” value (blood pressure [3]; intravenous 1.0 mg./kg.) was 33% and the “Reduction in blood pressure” value (blood pressure [3]; intravenous 10.0 mg./kg.) was 64%. For the same compound, the “Reduction in blood pressure” value (blood pressure [3]; intravenous 0.01 to 10 mg./kg.) was “dose related reduction in blood pressure”, the “Reduction of blood pressure” value (blood pressure [4]) was “substantial reduction of blood pressure” and the “Urine output” value (urine output) was “doubled the urine output”.

In the case of `CC(=N)NS(=O)(=O)C=Cc1ccc([N+](=O)[O-])cc1` [N-(4-nitrostyrylsulfonyl)-acetamidine, N-(4-NITROSTYRYLSULFONYL)ACETAMIDINE], the “Analgesic activity, Percent Inhibition” value ([1]; subcutaneous 6 mg./kg., time interval 60 min.) is reported as 36%.

Work on `N=C(N/C=C/c1ccc(Cl)c(Cl)c1)C1CC1` [N-(3,4-dichlorostyryl)cyclopropanecarboxamidine] yielded an IC50 (platelet aggregation) of less than 30 µg/mL.
